From paper PMC2375285, “Inhibition of all-TRANS-retinoic acid metabolism by R116010 induces antitumour activity” (British Journal of Cancer, 2002)

Legend:
[1] = tested on: RA metabolism in T47D cells; assay: Reverse-phase HPLC analysis of radiolabelled RA metabolites in T47D cells; type: cell-based, human; details: 1 μM R116010; T47D cells pretreated with 1 μM RA
Description: The T47D cell suspension was prepared as described above and 450 μl was incubated with 0.1 μM [11, 12-^3H(N)]RA for 90 min. After centrifugation for 10 min at 780 g, the supernatant was analyzed for the presence of RA metabolites. Reverse-phase HPLC analysis was carried out as described previously ([Van heusden et al, 1998]).

[2] = molecular target: T1, CYP26A1 (Homo sapiens, UniProt O43174); assay: RA 4-hydroxylase in T47D human breast cancer microsomes; type: biochemical
T1 construct: microsomes of T47D human breast cancer cells that were pretreated for 16 h with 1 μM RA to induce RA metabolism; endogenous in cells; host or cells: T47D human breast cancer cells, pretreated with 1 μM RA for 16 h; microsomal fraction
T1 sequence (O43174 1-497): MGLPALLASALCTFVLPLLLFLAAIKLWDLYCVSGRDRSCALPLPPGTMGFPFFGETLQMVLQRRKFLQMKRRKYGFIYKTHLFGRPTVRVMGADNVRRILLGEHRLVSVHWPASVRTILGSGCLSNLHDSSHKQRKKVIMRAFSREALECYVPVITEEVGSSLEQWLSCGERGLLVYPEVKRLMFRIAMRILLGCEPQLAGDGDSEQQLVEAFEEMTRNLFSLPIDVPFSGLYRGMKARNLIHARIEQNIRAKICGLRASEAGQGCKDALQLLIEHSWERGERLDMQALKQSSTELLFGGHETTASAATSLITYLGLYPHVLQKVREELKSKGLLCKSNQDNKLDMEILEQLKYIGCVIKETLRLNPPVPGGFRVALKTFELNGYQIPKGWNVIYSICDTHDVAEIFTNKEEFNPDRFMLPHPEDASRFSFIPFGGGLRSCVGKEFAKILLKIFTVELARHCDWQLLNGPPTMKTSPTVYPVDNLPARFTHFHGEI
Description: (§1) Metabolism of RA by CYP26A1 was measured in microsomes of T47D human breast cancer cells that were pretreated for 16 h with 1 μM RA to induce RA metabolism. Microsomes were prepared exactly as described by [Han and Choi (1996)], and RA metabolism was measured as described by [Van Wauwe et al (1994)]. The conversion of androstenedione to estrone by aromatase (CYP19) in human placental microsomes, the conversion of 17-hydroxy-20-dihydroprogesterone to testosterone by 17,20-lyase (CYP17) in rat testicular S10 fractions, and the 2α-, 7α-, 6β-, and 16β-hydroxylation of testosterone (CYP2C11, CYP2A1, CYP3A, CYP2B1/2) in rat liver microsomes were carried out as described ([Vanden Bossche et al, 1990]).

[3] = molecular target: T2, 17,20-lyase (CYP17) (Rattus norvegicus, UniProt P11715); assay: 17,20-lyase in rat testicular S10 fraction; type: biochemical
T2 construct: 17,20-lyase (CYP17) in rat testicular S10 fractions; from tissue; host or cells: rat testis, S10 fraction
T2 sequence (P11715 1-507): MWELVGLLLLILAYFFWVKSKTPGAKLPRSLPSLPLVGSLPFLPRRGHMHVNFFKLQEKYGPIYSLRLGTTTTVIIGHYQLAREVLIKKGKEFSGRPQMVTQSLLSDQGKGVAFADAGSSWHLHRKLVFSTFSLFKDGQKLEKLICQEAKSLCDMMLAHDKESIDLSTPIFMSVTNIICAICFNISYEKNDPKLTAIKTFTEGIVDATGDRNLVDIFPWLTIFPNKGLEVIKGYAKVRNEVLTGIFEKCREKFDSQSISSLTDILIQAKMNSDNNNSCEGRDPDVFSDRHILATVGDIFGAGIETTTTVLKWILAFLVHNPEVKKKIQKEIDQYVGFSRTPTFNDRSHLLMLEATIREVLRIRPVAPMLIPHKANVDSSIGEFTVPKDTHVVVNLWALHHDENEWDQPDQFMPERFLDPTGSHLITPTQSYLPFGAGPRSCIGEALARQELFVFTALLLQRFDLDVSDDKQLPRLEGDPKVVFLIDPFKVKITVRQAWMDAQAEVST
Description: as §1

[4] = in vivo; details: mouse, po
Description: Cells (1.5×10^6) were injected intraperitoneally in syngeneic A/J mice. […] Each group consisted of 10 animals for experiments with R116010 and of six animals for experiments with RA. All treatments were performed by oral gavage. […] The control groups were given the vehicle 20% 4-OH-β-cyclodextrine in sterile saline. Mice were daily examined for adverse drug effects. At the end of the experiments, subcutaneous tumours were excised 24 h after the last treatment and weighed to validate the antitumoural effects of the treatment.
Data are represented as box plots showing median group value, 25/75th percentile, 10/90th percentile and outliers. Groups were statistically compared to the vehicle-treated groups using the Mann–Whitney U-test. Significance was defined at the level of P<0.05.

[5] = molecular target: T3, aromatase (CYP19) (Homo sapiens, UniProt P11511); assay: Aromatase, conversion of androstenedione to estrone in human placental microsomes; type: biochemical
T3 construct: aromatase (CYP19) in human placental microsomes; from tissue; host or cells: human placenta, microsomes
T3 sequence (P11511 1-503): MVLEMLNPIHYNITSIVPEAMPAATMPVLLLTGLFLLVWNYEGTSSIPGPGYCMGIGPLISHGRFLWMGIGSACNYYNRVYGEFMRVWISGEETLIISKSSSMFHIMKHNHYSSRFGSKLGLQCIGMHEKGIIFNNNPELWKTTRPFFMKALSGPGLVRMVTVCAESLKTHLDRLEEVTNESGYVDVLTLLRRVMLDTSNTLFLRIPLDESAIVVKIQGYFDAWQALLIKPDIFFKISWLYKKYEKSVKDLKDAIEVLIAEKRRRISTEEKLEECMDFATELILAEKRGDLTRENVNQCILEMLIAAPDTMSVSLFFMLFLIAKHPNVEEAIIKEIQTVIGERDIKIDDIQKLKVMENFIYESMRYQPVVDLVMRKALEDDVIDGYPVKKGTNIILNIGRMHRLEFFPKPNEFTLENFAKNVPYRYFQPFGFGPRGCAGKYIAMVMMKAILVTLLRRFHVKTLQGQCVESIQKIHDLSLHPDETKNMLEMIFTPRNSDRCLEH
Description: (§2) The conversion of androstenedione to estrone by aromatase (CYP19) in human placental microsomes, the conversion of 17-hydroxy-20-dihydroprogesterone to testosterone by 17,20-lyase (CYP17) in rat testicular S10 fractions, and the 2α-, 7α-, 6β-, and 16β-hydroxylation of testosterone (CYP2C11, CYP2A1, CYP3A, CYP2B1/2) in rat liver microsomes were carried out as described ([Vanden Bossche et al, 1990]).

[6] = tested on: CYP3A; assay: Testosterone 6β-hydroxylase in rat liver microsomes; details: probe testosterone
Description: as §2

[7] = tested on: CYP2B1/2; assay: Testosterone 16β-hydroxylase in rat liver microsomes; type: biochemical; details: probe testosterone (16β-hydroxylation)
Description: as §2

C[C@@H]([C@H](c1ccc(Nc2nc3ccccc3s2)cc1)n1ccnc1)N(C)C [R116010, [S-(R*,R*)]-N-[4-[2-(dimethylamino)-1-(1H-imidazole-1-yl)propyl]-phenyl]-2-benzothiazolamine]
inhibition of RA metabolism (HPLC) [1]: completely inhibited | IC50 [2]: 4 nM | IC50 [3]: 250 nM | MTD [4]: 5 mg/kg | inhibition at 10 μM ([5]; 10 μM R116010, human placental microsomes, read-out: percentage of inhibition, Aromatase (CYP19)): 12% | IC50 ([5]; Human placental microsomes): > 10000 nM | IC50 [6]: > 10000 nM | inhibition at 10 μM [6]: 41% | inhibition at 10 μM ([7]; 10 μM R116010, rat liver microsomes, read-out: percentage of inhibition, Testosterone 16β-hydroxylase (CYP2B1/2)): 21% | IC50 ([7]; Rat liver microsomes): > 10000 nM
